Tested on: differentiated THP-1 cells
Assay: LDH cytotoxicity assay
Type: cell-based
Conditions: 48 hr
Description: Following identification as an HTS broad spectrum hit and confirmation by CLSM, a cytotoxicity assay was performed on compounds 3, 7, 8 and 11. The lactate dehydrogenase assay (LDH) is commonly used as an enzymatic marker to quantitatively correlate cell death via leakage of the enzyme from dead or dying cells. An LDH assay was used to investigate the toxicity of compounds on A549 and differentiated THP-1 cells. […] Finally, 25 μl of Stop Solution was added, incubated at room temperature for 5 min, and the fluorescence signal was detected using a Synergy 2 Multi-Mode Microplate Reader (Ex. […]/Em. 590). The unit of measurement is the Relative Fluorescence Unit (RFU). The cytotoxicity of the compounds was calculated based on the percentage of compound RFUs measured (Experimental) in comparison to the RFU of the DMSO treated cells as those that were completely lysed (Maximum LDH Release). […]
The cytotoxicity of the broad agent hit compounds was examined in differentiated human THP-1, a human acute monocytic leukemia cell line and A549, a human lung adenocarcinoma epithelial cell line. […] Compounds were assessed at varying concentrations of 0, 260, 290, 300, and 570 μM for compounds 7, 11, 8, and 3, respectively, for the cytotoxicity assays. […]

**Q.** For `Cn1sc(Cl)c(C#N)c1=O` [Compound 3, 5-chloro-2-methyl-3-oxo-1,2-thiazole-4-carbonitrile], which “cytotoxicity (LDH)” value (57 μM) is on record?
**A.** 60%

**Q.** And the “cytotoxicity (LDH), change against 57 μM” value (570 μM)?
**A.** decreased

Source: patent US10704076B2, “Multi-tiered high through-put screen for compounds effective against bacterial biofilm and compounds effective for inhibiting and eradicating bacterial biofilm” (University of Cincinnati, priority 2013, dated 2020)
